{"source": "ChEMBL document CHEMBL4609992", "about": "“Discovery of novel small molecule induced selective degradation of the bromodomain and extra-terminal (BET) bromodomain protein BRD4 and BRD2 with cellular potencies” (Bioorg Med Chem, 2020)", "key": {"MV4-11 [1]": {"tested_on": "MV4-11", "assay": "Antiproliferative activity against human MV4-11 cells assessed as reduction in cell viability measured after 48 hrs by CellTiter-Glo assay", "type": "functional, cell-based", "conditions": "MV4-11, 48 h"}, "MOLM-13": {"tested_on": "MOLM-13", "assay": "Antiproliferative activity against human MOLM13 cells assessed as reduction in cell viability measured after 48 hrs by CellTiter-Glo assay", "type": "functional, cell-based", "conditions": "MOLM-13, 48 h"}, "[2]": {"target": "T1, Protein cereblon/Bromodomain-containing protein 4/Cullin-4A (Homo sapiens) (UniProt O60885+Q96SW2+Q13619)", "assay": "Protac activity at cereblon/cullin4A/BRD4 in human MV4-11 cells assessed as induction of BRD4 degradation at 100 nM measured after 1 to 4 hrs by Western blot analysis", "type": "cell-based"}, "[3]": {"target": "T1, Protein cereblon/Bromodomain-containing protein 4/Cullin-4A (Homo sapiens)", "assay": "Protac activity at cereblon/cullin4A/BRD4 in human MV4-11 cells assessed as induction of BRD4 degradation at 100 nM measured after >= 8 hrs by Western blot analysis", "type": "cell-based"}, "[4]": {"target": "T1, Protein cereblon/Bromodomain-containing protein 4/Cullin-4A (Homo sapiens)", "assay": "Protac activity at cereblon/cullin4A/BRD4 in human MV4-11 cells assessed as downregulation of c-Myc at 50 nM measured after 18 hrs by Western blot analysis", "type": "cell-based"}, "[5]": {"target": "T1, Protein cereblon/Bromodomain-containing protein 4/Cullin-4A (Homo sapiens)", "assay": "Protac activity at cereblon/cullin4A/BRD4 in human MV4-11 cells assessed as induction of BRD4 degradation at 500 nM measured after 18 hrs by Western blot analysis relative to control", "type": "cell-based"}, "MV4-11 [6]": {"tested_on": "MV4-11", "assay": "Induction of apoptosis in human MV4-11 cells at 10 uM measured after 24 hrs by Annexin V-FITC/propidium iodide staining based FACScan flow cytometry relative to control", "type": "functional"}, "[7]": {"target": "T2, Bromodomain-containing protein 4 (Homo sapiens, UniProt O60885)", "assay": "Selectivity index, ratio of IC50 for BRD4 BD2 (unknown origin) to IC50 for BRD4 BD1 (unknown origin)"}, "[8]": {"target": "T2, Bromodomain-containing protein 4", "assay": "Binding affinity to recombinant human N-terminal His-tagged BRD4 BD1 (44 to 170 residues) expressed in Escherichia coli using H4K5AcK8Ac as substrate measured after 30 mins by AlphaScreen assay"}, "[9]": {"target": "T2, Bromodomain-containing protein 4", "assay": "Binding affinity to recombinant human N-terminal His-tagged BRD4 BD2 (349 to 460 residues) expressed in Escherichia coli measured after 30 mins by AlphaScreen assay"}}, "note": "Activity calls are given as the source filed them. The rule behind the calls is not given here.", "data": [{"compound": "COc1ccccc1S(=O)(=O)Nc1ccc2c3c(cc(CCC(=O)NCCCCCCNc4cccc5c4C(=O)N(C4CCC(=O)NC4=O)C5=O)cc13)C(=O)N2C", "note": "(centres undefined)", "values": [{"measurement": "IC50", "setting": "MV4-11 [1]", "value": 3430, "unit": "nM"}, {"measurement": "IC50", "setting": "MOLM-13", "value": "> 10000", "unit": "nM"}]}, {"compound": "COc1ccccc1S(=O)(=O)Nc1ccc2c3c(cc(CCC(=O)NCCCNc4cccc5c4C(=O)N(C4CCC(=O)NC4=O)C5=O)cc13)C(=O)N2C", "note": "(centres undefined)", "values": [{"measurement": "IC50", "setting": "MV4-11 [1]", "value": 25.2, "unit": "nM"}, {"measurement": "IC50", "setting": "MOLM-13", "value": 180, "unit": "nM"}, {"measurement": "Activity", "setting": "[2]", "value": "Active"}, {"measurement": "Activity", "setting": "[3]", "value": "Active"}, {"measurement": "Activity", "setting": "[4]", "value": "Active"}, {"measurement": "Activity", "setting": "[5]", "value": 100, "unit": "%"}]}, {"compound": "COc1ccccc1S(=O)(=O)Nc1ccc2c3c(cc(CCC(=O)NCCCCCNc4cccc5c4C(=O)N(C4CCC(=O)NC4=O)C5=O)cc13)C(=O)N2C", "note": "(centres undefined)", "values": [{"measurement": "IC50", "setting": "MV4-11 [1]", "value": 32.2, "unit": "nM"}, {"measurement": "IC50", "setting": "MOLM-13", "value": 177, "unit": "nM"}]}, {"compound": "COc1ccccc1S(=O)(=O)Nc1ccc2c3c(cccc13)C(=O)N2C", "values": [{"measurement": "IC50", "setting": "MV4-11 [1]", "value": 370, "unit": "nM"}, {"measurement": "IC50", "setting": "MOLM-13", "value": 3370, "unit": "nM"}, {"measurement": "Activity", "setting": "MV4-11 [6]", "value": 86.07, "unit": "%"}, {"measurement": "Ratio IC50", "setting": "[7]", "value": 50}]}, {"compound": "COC(=O)CCc1cc2c3c(ccc(NS(=O)(=O)c4ccccc4OC)c3c1)N(C)C2=O", "values": [{"measurement": "IC50", "setting": "[8]", "value": 365, "unit": "nM"}, {"measurement": "IC50", "setting": "[9]", "value": 3690, "unit": "nM"}]}, {"compound": "Cc1sc2c(c1C)C(c1ccc(Cl)cc1)=N[C@@H](CC(=O)OC(C)(C)C)c1nnc(C)n1-2", "values": [{"measurement": "IC50", "setting": "MV4-11 [1]", "value": 80.8, "unit": "nM"}]}, {"compound": "COc1ccccc1S(=O)(=O)Nc1ccc2c3c(cc(CCC(=O)NCCNc4cccc5c4C(=O)N(C4CCC(=O)NC4=O)C5=O)cc13)C(=O)N2C", "note": "(centres undefined)", "values": [{"measurement": "IC50", "setting": "MV4-11 [1]", "value": 1650, "unit": "nM"}, {"measurement": "IC50", "setting": "MOLM-13", "value": "> 10000", "unit": "nM"}]}]}
